Assay results reported in patent US10865316B2 (Clemson University Research Foundation, priority 2015, dated 2020).
Entries after “also recorded” stand apart in the source; their conditions may differ.

Experiments:
oyster hemocytes = assay type: cell-based
3-day old cyprid = conditions: in vivo

pGlu Gly Val Cys Cys Gly Tyr Lys Leu Cys His Hyp Cys-NH2 [SEQ ID NO: 13]
apoptosis in oyster hemocytes (oyster hemocytes): cause apoptosis | cyprid settlement (3-day old cyprid): inhibited cyprid settlement; also recorded: promoted settlement
